What was measured:
[1] = system: MB468 breast carcinoma; assay: in vitro amino acid uptake, MDA MB 468 cells; type: cell-based, human
Source text: The inventive compounds have been evaluated in vitro for tumor binding specificity (i.e. uptake cells) using a variety of tumor cell lines available in the art, along with reference compounds such as Me-AIB and BCH. Detailed description of these assays can be found in Martarello et al. (2002) Journal of Medicinal Chemistry, 45:2250-2259 and McConathy et al. (2003) Nuclear Medicine and Biology, 30:477-490. These, so called “amino acid uptake studies” are typically carried out with radiolabeled compounds in at least five phenotypically different human tumor cell lines (e.g. A549 lung carcinoma, MB468 breast carcinoma, DU145 prostate carcinoma, SKOV3 ovarian carcinoma, and U87 glial blastoma). These tumor cell lines can be grown either in vitro or in vivo with severe combined immunodeficiency (SCID) mice as a host. The fore-mentioned tumor cell lines are available at the Winship Cancer Institute of Emory University.
For the in vitro amino acid uptake studies, all cells can be grown to monolayer confluency in T-175 culture flasks [Corning, Corning, N.Y.] (approx. 1×10^8 cells/flask) in Dulbecco's Modified Eagle's Medium (DMEM) [Sigma, St. Louis, Mo.] in a humidified incubator (37° C., 5% CO2/95% air). Media are supplemented with 10% fetal calf serum [Hyclone, Logan, Utah], and antibiotics (10,000 U/ml penicillin and 10 mg/ml streptomycin) (Sigma, St. Louis, Mo.). For tissue culture passage, monolayer cells are detached by gentle trypsinization, resuspended in complete media, and split 1:10 into new T-flasks. […]
In the in vitro studies the uptake rate of each amino acid compound is measured in each tumor line, as well as the dominant transport mechanisms of each tumor cell line. After trypsinization, cells are resuspended in serum-free media, then counted on a hemocytometer, with viability assessed through Trypan blue staining. […] The vials are placed in a Cobra-II gamma counter (Packard, Meriden, Conn.), with the activity per cell number determined. […] Saline washes are performed as described above, and the filtered cells radioactivity determined on the gamma counter. […]

[2] = system: MB468 Breast Tumor Cells Implanted SC in SCID Mice; assay: tissue distribution, MB468 tumor-bearing SCID mice; type: in vivo
Procedure: For the in vitro amino acid uptake studies, all cells can be grown to monolayer confluency in T-175 culture flasks [Corning, Corning, N.Y.] (approx. 1×10^8 cells/flask) in Dulbecco's Modified Eagle's Medium (DMEM) [Sigma, St. Louis, Mo.] in a humidified incubator (37° C., 5% CO2/95% air). Media are supplemented with 10% fetal calf serum [Hyclone, Logan, Utah], and antibiotics (10,000 U/ml penicillin and 10 mg/ml streptomycin) (Sigma, St. Louis, Mo.). For tissue culture passage, monolayer cells are detached by gentle trypsinization, resuspended in complete media, and split 1:10 into new T-flasks. Cultures are passaged weekly, and fed fresh media every 2 to 3 days. To initiate tumor growth in SCID mice, 1×10^6 cells are injected s.c. bilaterally into the flanks (inguinal region) of the recipient animals using a 1 ml syringe with a 27 gauge needle. Ex vivo experiments can be performed with animals containing tumors weighing between 500 mg and 1 g, as estimated by caliper measurement (tumor weight=(π/6)*abc, where a, b and c are the tumor length, width and height, respectively). The compounds of the invention are further evaluated for their tumor specificity and selectivity in tumor-bearing animal models. One can evaluate and compare the transport, accumulation and tissue distribution of each compound in these in vivo animal studies. Tissue distribution of the compounds is measured in SCID mice (average weight, 20-25 g) bearing human tumors as follows. The candidate radioligands (20 uCi in 0.4 ml 0.9% NaCl) are injected into the tail vein of tumor-bearing mice. […] Tissues (blood, heart, liver, lungs, kidneys, bone, thyroid, muscle, brain and tumor) are excised, rinsed in saline, and blotted dry. The tissues are weighed, placed into 12×75 mm glass vials, the radioactivity determined with a gamma counter, and the percent dose/gram calculated. Total activities of blood and muscle are calculated by assuming that they account for 7% and 40% of the total body mass, respectively.

## NC1(C(=O)O)CCC1[18F] [Anti-R,S 2-[^18F]FACBC, (R,S) anti-1-amino-2-[^18F]fluorocyclobutyl-1-carboxylic acid]
[1]; MDA MB 468, No inhibitor
  % Dose Uptake/0.5e6 Cells: 7.37 +/− 0.21 % Dose Uptake/0.5e6 Cells
[1]; MDA MB 468, inhibitor BCH (10 mM)
  % Dose Uptake/0.5e6 Cells: 1.67 +/− 0.36 % Dose Uptake/0.5e6 Cells
[1]; MDA MB 468, inhibitor MeAlB (10 mM)
  % Dose Uptake/0.5e6 Cells: 3.02 +/− 0.55 % Dose Uptake/0.5e6 Cells
[2]; 15 Minutes
  % Dose/g blood: 3.26 % Dose/g
  % Dose/g bone: 1.46 % Dose/g
  % Dose/g brain: 0.23 % Dose/g
  % Dose/g heart: 2.21 % Dose/g
  % Dose/g kidney: 8.62 % Dose/g
  % Dose/g liver: 2.51 % Dose/g
  % Dose/g lung: 4.02 % Dose/g
  % Dose/g muscle: 1.29 % Dose/g
  % Dose/g pancreas: 36.85 % Dose/g
  % Dose/g spleen: 4.47 % Dose/g
  % Dose/g tumor: 2.71 % Dose/g
[2]; 30 Minutes
  % Dose/g blood: 2.39 % Dose/g
  % Dose/g bone: 1.31 % Dose/g
  % Dose/g brain: 0.20 % Dose/g
  % Dose/g heart: 1.89 % Dose/g
  % Dose/g kidney: 6.49 % Dose/g
  % Dose/g liver: 2.49 % Dose/g
  % Dose/g lung: 2.98 % Dose/g
  % Dose/g muscle: 1.12 % Dose/g
  % Dose/g pancreas: 35.25 % Dose/g
  % Dose/g spleen: 4.11 % Dose/g
  % Dose/g tumor: 2.83 % Dose/g
[2]; 60 Minutes
  % Dose/g blood: 1.00 % Dose/g
  % Dose/g bone: 0.92 % Dose/g
  % Dose/g brain: 0.15 % Dose/g
  % Dose/g heart: 1.27 % Dose/g
  % Dose/g kidney: 2.41 % Dose/g
  % Dose/g liver: 1.29 % Dose/g
  % Dose/g lung: 1.37 % Dose/g
  % Dose/g muscle: 1.07 % Dose/g
  % Dose/g pancreas: 19.20 % Dose/g
  % Dose/g spleen: 3.05 % Dose/g
  % Dose/g tumor: 2.19 % Dose/g
[2]; 120 Minutes
  % Dose/g blood: 0.35 % Dose/g
  % Dose/g bone: 0.71 % Dose/g
  % Dose/g brain: 0.13 % Dose/g
  % Dose/g heart: 0.69 % Dose/g
  % Dose/g kidney: 0.89 % Dose/g
  % Dose/g liver: 0.56 % Dose/g
  % Dose/g lung: 0.51 % Dose/g
  % Dose/g muscle: 0.66 % Dose/g
  % Dose/g pancreas: 7.96 % Dose/g
  % Dose/g spleen: 1.01 % Dose/g
  % Dose/g tumor: 1.44 % Dose/g
